Among the data in ChEMBL document CHEMBL1126383, “P-3A and ()-desacetamido P-3A: demonstration and Study of their effective functional cleavage of duplex DNA” (Bioorg Med Chem Lett, 1992) are Relative efficiency and Selectivity values, retold here.

Molecules are shown by their SMILES. Active and inactive are the calls of the source. No cut-off for these calls is given here.

What all share (format): functional
In test [1] the test system is Nucleic Acid. Briefly: Relative efficiency of supercoiled phi X174 DNA cleavage was determined; 4-10.
Test [2] has as its system Nucleic Acid. Briefly: Relative efficiency of supercoiled phi X174 DNA cleavage was determined; 1.25-2.
The test system of test [3] is Nucleic Acid. Nature of the test: DNA cleavage selectivity selected within singly 5' -end labeled w794 DNA was determined; N - None.
The subject of test [4] is Nucleic Acid. Nature of the test: Relative efficiency of supercoiled phi X174 DNA cleavage was determined; 0.33-0.2.
In test [5] the test system is Nucleic Acid. Briefly: Relative efficiency of supercoiled phi X174 DNA cleavage was determined.

`Cc1c(N)nc([C@H](CC(N)=O)NC[C@H](N)C(N)=O)nc1C(=O)N[C@H](C(=O)N[C@H](C)[C@@H](O)[C@H](C)C(=O)N[C@H](C(=O)NCCc1nc(-c2nc(C(=O)NCCC[S+](C)C)cs2)cs1)[C@@H](C)O)[C@@H](O[C@@H]1O[C@@H](CO)[C@@H](O)[C@H](O)[C@@H]1O[C@H]1O[C@H](CO)[C@@H](O)[C@H](OC(N)=O)[C@@H]1O)c1c[nH]cn1` came in with a Relative efficiency with Nucleic Acid [1] of 4. For `Cc1c(N)nc(C(CC(N)=O)NC[C@H](N)C(N)=O)nc1C(=O)NC(C(=O)NC(C)C(O)[C@H](C)C(=O)NC(C(=O)NCCc1nc(-c2nc(C(=O)NCCC[S+](C)C)cs2)cs1)C(C)O)C(O)c1c[nH]cn1` (stereo partly specified), the Relative efficiency in the test with Nucleic Acid [2] came out at 1.25. In the case of `C[C@H](NC(=O)C(Cc1c[nH]cn1)NC(=O)c1cc(N)nc(CNC[C@H](N)C(N)=O)n1)C(=O)O` (stereo partly specified), the Selectivity entry in the test with Nucleic Acid [3] was “inactive”. This compound also had a Relative efficiency in the test with Nucleic Acid [4] of 0.2.

As for `C[C@H](NC(=O)C(Cc1c[nH]cn1)NC(=O)c1cc(N)nc(C(CC(N)=O)NC[C@H](N)C(N)=O)n1)C(=O)O` (stereo partly specified), the Relative efficiency in the test with Nucleic Acid [5] was 1. Besides, the Selectivity entry in the test with Nucleic Acid [3] is “inactive”.
